Our source for the IC50 values is patent publication US20240287062A1, “NAPHTHYRIDONE COMPOUNDS FOR INHIBITION OF RAF KINASES AND/OR BCR-ABL TYROSINE KINASES” (Enliven Inc., priority 2021, published 2024).

SMILES strings stand for the structures. Where two headings read alike, the source gives them in different places.

Format in all cases: cell-based
One series deals with K562 cells. In words: Cell viability assay (CellTiter Glo). To be noted: K562 cells grown as in Example B1, read-out: BRAF Cytotoxicity (IC50, nM) K562. Here is the method:
K562 cells, cultured in Iscove's Modified Dulbecco's Media (IMDM) supplemented with 10% FBS, were harvested at 50-80% confluency and plated at 2,000 cells per well in 384-well tissue culture plates. A subset of wells contained media only (low control, LC). Compounds were serially diluted in DMSO. 40 nL of compound or DMSO only (high control, HC) were added to each well using an Echo 550 liquid handler (Labcyte). The plates were placed in a 37° C. incubator with 5% CO2 for 72 hours. Cell viability was measured using a CellTiter-Glo luminescent cell viability assay (Promega), which allows for relative quantification of metabolically active cells by luminescence-based measurements of intracellular ATP concentrations. Briefly, plates were removed from the incubator and equilibrated for 15 minutes at room temperature prior to the addition of 40 μL of CellTiter-Glo reagent. Plates were then incubated for 30 minutes at room temperature. Luminescence was measured using an EnSpire plate reader (Perkin Elmer). As noted above, luminescence values from wells with DMSO only or media without cells were used as high and low controls (HC and LC), respectively. Normalized percent viability was calculated as follows: percent viability=100×(LumSample−LumLC)/(LumHC−LumLC). IC50 values were calculated using the XLFit software.
(§1) Cell viability was measured in the following MAPK pathway mutant cancer cell lines: A375 (BRAF V600E), HepG2 (NRAS Q61L), SK-MEL-30 (NRAS Q61K), and OCI-AML-2 (MBNL1-CRAF fusion). Cell viability was also measured in K562 cells.
(§2) Table 6 provides the growth media, number of cells seeded per well and drug treatment times for the each cell line. K562 cells were grown as described in Example B1 above.
(§3) Compounds were dissolved in DMSO and serially diluted. Serially-diluted compound or a DMSO only control (high control, “HC”) was added to the plated cells in each well. Compounds were tested at concentrations of about 10 μM to 0.51 nM, using three-fold dilutions. The final proportion of DMSO never exceeded 0.1%.
(§4) Plates were placed in a 37° C., […] incubator for the indicated treatment times (Table B1). Plates were then removed from the incubator and equilibrated for 15 minutes at room temperature. 40 μl of CellTiter Glo reagent (Promega) was added to measure the relative level of metabolically active cells by quantifying intracellular ATP concentrations. Plates were incubated for 30 minutes at room temperature, and luminescence was measured. Percent viability was normalized to a vehicle control only using the following formula: 0 viability=100×(LumSample−LumLC)/(LumHC−LumLC). Graphical curves were fitted using a nonlinear regression model with a sigmoidal dose response.

Series [1] concerns phosphorylated ERK (pERK). In words: Detection of phosphorylated ERK (pERK), AlphaLISA in A375 cells. To be noted: four hours incubation, inhibition of ERK phosphorylation, read-out: PERK ELISA (IC50). As for the experimental part:
A375 cells were counted and seeded at 10,000 cells/well in 384 well plates (Corning 3764) and allowed to adhere overnight.
Compounds were dissolved and serially diluted in DMSO. The compounds were then added, mixed, and incubated for four hours at 37° C., 5% CO2. Compounds were added using four-fold dilutions at final concentrations ranging from 10 μM to 0.01 nM. DMSO only and 10 uM staurosporine were added as high and low controls.
Following the four-hour incubation with compounds, cell lysates were prepared and AlphaLISA assay measuring phosphorylated ERK was performed. Media was removed using the Apricot Designs pipettor. Lysis buffer was made from 1× AlphaLISA SureFire Assay Kit (AlphaLISA SureFire Ultra pERK 12 (Thr202/Tyr204) ALSU-PERK-A50K) lysis buffer with protease and phosphatase inhibitors. Cells were lysed by adding 10 uL to all the wells and mixed for 40 minutes on a plate shaker. 10 uL cell lysate was transferred to a new Optiplate (PerkinElmer 6007290) and incubated with 5 uL 1× acceptor mix for 2 hours in the dark. 5 uL of 1× donor mix was added to all wells and mixed by shaking followed by overnight incubation in the dark.
pERK AlphaLISA signal was read on the Envision using standard AlphaLISA settings. Percent inhibition of ERK phosphorylation was calculated by % Inhibition=100×(LumHC−LumSample)/(LumHC−LumLC). The low and high controls (LC/HC) are generated from lysate from wells with cells treated with DMSO or […] Staurosporine (BioAustralis, cat #BIA-S1086), […]. IC50 values were calculated by fitting the Curve using XLfit (v5.3.1.3), equation 201: Y=Bottom+(Top−Bottom)/(1+10^((Log IC50−X)*HillSlope)).

A further series concerns SK-MEL-30 (NRAS Q61K). As to the kind of experiment: Cell viability assay (CellTiter Glo). Particulars: SK-MEL-30, 750 cells per well, read-out: BRAF Cytotoxicity (IC50, nM) SK-MEL-30. As for the experimental part:
as §1
(§5) A375, HepG2, SK-MEL-30 and OCI-AML-2 cells were grown in the appropriate growth medium as described in Table B2 below, and harvested at 50-80% confluence. Cells were counted and seeded at their appropriate density (see Table B1) in a 384-well plate (Corning 3570). A375, HepG2 and SK-MEL-30 were allowed to adhere overnight prior to treatment and the OCI-AML-2 were treated immediately for the indicated drug treatment times (Table 6).
as §2, §3, §4
For orientation: ATP-based viability assays read luminescence as a measure of living cells.

Series [2] deals with OCI-AML-2 (MBNL1-CRAF fusion). In words: Cell viability assay (CellTiter Glo). To be noted: OCI-AML-2, 1000 cells per well, read-out: BRAF Cytotoxicity (IC50, nM) OCI-AML-2. Here is the method:
as §1, §5, §2, §3, §4

The test system of a further series is A375 (BRAF V600E). In words: Cell viability assay (CellTiter Glo). Here is the method: as §1, §5, §2, §3, §4
The test system of another series is HepG2 (NRAS Q61L). In words: Cell viability assay (CellTiter Glo). Particulars: HepG2, 750 cells per well, read-out: BRAF Cytotoxicity (IC50, nM) HEPG2. As for the experimental part:
as §1, §5, §2, §3, §4

Where [3] appears, read: A375, 250 cells seeded per well, 72 hours, read-out: BRAF Cytotoxicity (IC50, nM) A375 (250 cells).
The mark [4] stands for this setting: A375, 1000 cells seeded per well, 72 hours, read-out: BRAF Cytotoxicity (IC50, nM) A375 (1000 cells).
The mark [5] stands for this setting: Homo sapiens, A-375, 72 h, A375, 250 cells seeded per well, read-out: BRAF Cytotoxicity (IC50, nM) A375 (250 cells).
Where [6] appears, read: Homo sapiens, A-375, 72 h, A375, 1000 cells seeded per well, read-out: BRAF Cytotoxicity (IC50, nM) A375 (1000 cells).

With `CCCC(O)c1cc(C)c(-c2cc3cnc(NC(=O)[C@H]4C[C@H]4F)cc3n(C)c2=O)cn1` (single isomer, unassigned) [Example S43, Isomer A], the IC50 turned out to be 1690 nM with K562 cells (Homo sapiens); 8.01 nM in series [1] (Homo sapiens, A-375, 4 h); 399 nM in the series with SK-MEL-30 (NRAS Q61K) (120 hours); 457 nM in series [2] (72 hours); 152 nM in the series on A375 (BRAF V600E) (setting [3]); 52.1 nM in the series on A375 (BRAF V600E) (setting [4]). Moreover, the IC50 in the series on HepG2 (NRAS Q61L) (120 hours) came to 82.1 nM.
For `CCCC(O)c1cc(C)c(-c2cc3cnc(NC(=O)[C@H]4C[C@H]4F)cc3n(C)c2=O)cn1` (single isomer, unassigned) [Example S43, Isomer B], the IC50 was 14.7 nM in series [1]; more than 6150 nM in the series on SK-MEL-30 (NRAS Q61K) (120 hours); 2710 nM in series [2] (72 hours); 335 nM in the series with A375 (BRAF V600E) (setting [3]); 189 nM with A375 (BRAF V600E) (setting [4]); 843 nM in the series with HepG2 (NRAS Q61L) (120 hours).
Turning to `CCC(O)c1cc(C)c(-c2cc3cnc(NC(=O)[C@H]4CC4(F)F)cc3n(C)c2=O)cn1` (single isomer, unassigned) [Example S49, Isomer B], the IC50 in the series with K562 cells (Homo sapiens) came to 733 nM; in series [1], 8.64 nM; with SK-MEL-30 (NRAS Q61K) (120 hours), 103 nM; in series [2] (72 hours) it was 153 nM; in the series on A375 (BRAF V600E) (setting [5]), 74.9 nM; in the series with HepG2 (NRAS Q61L) (120 hours) it was 12.6 nM.
On to `CCC(O)c1cc(C)c(-c2cc3cnc(NC(C)=O)cc3n(C)c2=O)cn1` (single isomer, unassigned) [Example S59, Enantiomer A, N-(3-(6-(1-hydroxypropyl)-4-methylpyridin-3-yl)-1-methyl-2-oxo-1,2-dihydro-1,6-naphthyridin-7-yl)acetamide], for which the IC50 was more than 10000 nM in the series on K562 cells (Homo sapiens) and 78.5 nM in series [1].
Take `CCCC(O)c1cc(C)c(-c2cc3cnc(NC(C)=O)cc3n(C)c2=O)cn1` (single isomer, unassigned) [Example S67, Enantiomer A, N-(3-{6-[1-hydroxybutyl]-4-methylpyridin-3-yl}-1-methyl-2-oxo-1,6-naphthyridin-7-yl)acetamide]: the IC50 worked out at 9480 nM in the series with K562 cells (Homo sapiens); 7.23 nM in series [1]; 974 nM with SK-MEL-30 (NRAS Q61K) (Homo sapiens, SK-MEL-30, 120 h); 1390 nM in series [2] (Homo sapiens, OCI-AML2, 72 h); 215 nM in the series on A375 (BRAF V600E) (setting [5]); 252 nM in the series with HepG2 (NRAS Q61L) (Homo sapiens, HepG2, 120 h).
Regarding `CCC(O)c1cc(C)c(-c2cc3cnc(NC(=O)[C@@H]4C[C@@H]4F)cc3n(C)c2=O)cn1` (single isomer, unassigned; isomer a) [Example S40, Isomer A], the IC50 with K562 cells was found to be 1230 nM; in series [1] it was 47.4 nM; in the series on SK-MEL-30 (NRAS Q61K) (120 hours), 446 nM; in series [2] (72 hours), 496 nM; in the series with A375 (BRAF V600E) (setting [4]) it was 492 nM; in the series on HepG2 (NRAS Q61L) (120 hours), 211 nM.
As for `CC[C@H](O)c1cc(C)c(-c2cc3cnc(NC(=O)C4CC4)cc3n(C)c2=O)cn1` [Compound 69, N-(3-[6-[(1S)-1-hydroxypropyl]-4-methylpyridin-3-yl]-1-methyl-2-oxo-1,6-naphthyridin-7-yl)cyclopropanecarboxamide], the IC50 with K562 cells (Homo sapiens) amounted to 496 nM; in series [1] (Homo sapiens, A-375, 4 h), 43.1 nM; with SK-MEL-30 (NRAS Q61K) (Homo sapiens, SK-MEL-30, 120 h), 517 nM; in series [2] (Homo sapiens, OCI-AML2, 72 h), 485 nM; in the series with A375 (BRAF V600E) (setting [5]), 372 nM; in the series with A375 (BRAF V600E) (setting [6]), 354 nM. In addition, the IC50 in the series with HepG2 (NRAS Q61L) (Homo sapiens, HepG2, 120 h) came out at 107 nM.
Take `CC[C@H](O)c1cc(C)c(-c2cc3cnc(NC(=O)[C@H]4C[C@H]4F)cc3n(C)c2=O)cn1` [Compound 108, (1R,2R)-2-fluoro-N-(3-(6-((S)-1-hydroxypropyl)-4-methylpyridin-3-yl)-1-methyl-2-oxo-1,2-dihydro-1,6-naphthyridin-7-yl)cyclopropane-1-carboxamide]: the IC50 in the series with K562 cells (Homo sapiens) amounted to 1980 nM; in series [1] (Homo sapiens, A-375, 4 h) it was 17.4 nM; in the series on SK-MEL-30 (NRAS Q61K) (Homo sapiens, SK-MEL-30, 120 h) it was 311 nM; in series [2] (Homo sapiens, OCI-AML2, 72 h) it was 309 nM; in the series with A375 (BRAF V600E) (setting [5]), 422 nM; in the series on A375 (BRAF V600E) (setting [6]), 308 nM. Besides, the IC50 in the series with HepG2 (NRAS Q61L) (Homo sapiens, HepG2, 120 h) came out at 88.7 nM.
For `CCC(=O)c1cc(C)c(-c2cc3cnc(NC(=O)[C@H]4C[C@H]4F)cc3n(C)c2=O)cn1` [Compound 148, (1R,2R)-2-fluoro-N-(1-methyl-3-(4-methyl-6-propionylpyridin-3-yl)-2-oxo-1,2-dihydro-1,6-naphthyridin-7-yl)cyclopropane-1-carboxamide], the IC50 in the series with K562 cells (Homo sapiens) was found to be 2640 nM; in series [1] (Homo sapiens, A-375, 4 h), 19.3 nM.
For the molecule `CCCC(=O)c1cc(C)c(-c2cc3cnc(NC(=O)[C@H]4C[C@H]4F)cc3n(C)c2=O)cn1` [Compound 151, (1R,2R)—N-(3-(6-butyryl-4-methylpyridin-3-yl)-1-methyl-2-oxo-1,2-dihydro-1,6-naphthyridin-7-yl)-2-fluorocyclopropane-1-carboxamide], the IC50 was found to be 10.4 nM in series [1] (Homo sapiens, A-375, 4 h); 244 nM in the series on SK-MEL-30 (NRAS Q61K) (Homo sapiens, SK-MEL-30, 120 h); 448 nM in series [2] (Homo sapiens, OCI-AML2, 72 h); 37.3 nM in the series on HepG2 (NRAS Q61L) (Homo sapiens, HepG2, 120 h).
In the case of `CCCC(=O)c1cc(C)c(-c2cc3cnc(NC(=O)[C@@H]4C[C@@H]4F)cc3n(C)c2=O)cn1` [Compound 152, (1S,2S)—N-(3-(6-butyryl-4-methylpyridin-3-yl)-1-methyl-2-oxo-1,2-dihydro-1,6-naphthyridin-7-yl)-2-fluorocyclopropane-1-carboxamide], the IC50 was determined as 534 nM in the series on K562 cells (Homo sapiens); 8.99 nM in series [1] (Homo sapiens, A-375, 4 h); 585 nM in the series on SK-MEL-30 (NRAS Q61K) (Homo sapiens, SK-MEL-30, 120 h); 412 nM in series [2] (Homo sapiens, OCI-AML2, 72 h); 116 nM in the series with A375 (BRAF V600E) (setting [5]); 257 nM in the series with HepG2 (NRAS Q61L) (Homo sapiens, HepG2, 120 h).

Usually IC50 stands for the point on the concentration scale where inhibition reaches its midpoint.
